Measurements reported in patent US8137946B2, “Recombinant GRAS strains expressing thermophilic arabinose isomerase as an active form and method of preparing food grade tagatose by using the same” (CJ Cheiljedang Corporation, priority 2006, dated 2012).
“And” between values parts separate entries of the source, which are not always exact repeats. Identical values can stand only once.

T1: Geobacillus thermodenitrificans arabinose isomerase (mGTAI), recombinant, expressed in and purified from Corynebacterium glutamicum mGTAIC001 (Geobacillus thermodenitrificans, UniProt A4IPA1, C449S/N474K)
T1 sequence (A4IPA1 with tags, fused parts or gaps C449S/N474K): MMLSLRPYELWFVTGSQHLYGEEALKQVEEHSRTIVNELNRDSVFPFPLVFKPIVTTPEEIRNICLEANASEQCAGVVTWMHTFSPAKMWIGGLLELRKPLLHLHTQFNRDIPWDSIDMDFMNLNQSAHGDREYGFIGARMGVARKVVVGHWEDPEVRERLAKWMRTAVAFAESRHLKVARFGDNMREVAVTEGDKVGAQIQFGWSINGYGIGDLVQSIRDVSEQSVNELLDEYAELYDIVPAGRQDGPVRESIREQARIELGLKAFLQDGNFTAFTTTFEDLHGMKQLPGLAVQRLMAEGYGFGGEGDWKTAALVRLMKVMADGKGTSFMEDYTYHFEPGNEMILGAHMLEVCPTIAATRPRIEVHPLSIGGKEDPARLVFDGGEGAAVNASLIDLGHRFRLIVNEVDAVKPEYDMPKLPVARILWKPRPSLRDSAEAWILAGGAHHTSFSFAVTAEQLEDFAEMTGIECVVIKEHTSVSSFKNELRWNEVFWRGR


What was measured:
[1] = molecular target: T1, Geobacillus thermodenitrificans arabinose isomerase (mGTAI), recombinant, expressed in and purified from Corynebacterium glutamicum mGTAIC001; assay: Enzyme kinetics of purified recombinant arabinose isomerase (isomerization of galactose into tagatose)
Description: The culture solution was centrifuged at 8000×g for 10 minutes and cells were recovered. The cells were resuspended in 50 mM Tris-HCl (pH 7.0) buffer, and used for the protein purification. The cell suspension progressed to cell lysis using a high pressure cell homogenizer T-series (4.0 kW; Constant systems, UK), followed by heat-treatment at […] for 20 minutes. Centrifugation was performed at 10,000×g for 10 minutes to separate the expressed recombinant thermophilic arabinose isomerase.
The separated recombinant enzyme solution was filtered by ultrafiltration (MW: 10,000; Sartorius, U.S.A.) and was purified by Q Sepharose Fast Flow (anion exchange column) (staring buffer: 20 mM Tris-HCl, pH 7.5, elution buffer: 20 mM Tris-HCl (pH 7.5)+500 mM NaCl). The protein was purified by FPLC system and it was analyzed by SDS-PAGE.
The activity of the enzyme was measured by the cystein-carbazol-sulfuric acid method (Dische, Z., and E. Borenfreund., A New Spectrophotometric Method for the Detection and Determination of Keto Sugars and Trioses, J. Biol. Chem., 192:583-587, 1951). The fraction contained in the enzyme solution was analysed by SDS-PAGE.
The activity of the enzyme was measured in the reaction buffer (50 mM Tris-HCl, pH 7.0, 1 mM MnCl2 was added) at 55° C. to 85° C. (at intervals of 5° C.). The activity of the enzyme was measured by the cystein-carbazol-sulfuric acid method (Dische, Z., and E. Borenfreund., A New Spectrophotometric Method for the Detection and Determination of Keto Sugars and Trioses, J. Biol. Chem., 192:583-587, 1951).
To measure the enzyme kinetics of purified arabinose isomerase of the present invention, kinetic parameters were determined at 60° C., 65° C. and 70° C. (table 5).

[2] = substrate: OC[C@H]1OC(O)[C@H](O)[C@@H](O)[C@H]1O; assay: purified protein, by the assay type

Row | Molecule | kcat/Km ([1]; 60° C.) | νmax ([1]; 60° C.) | kcat/Km ([1]; 65° C.) [M⁻¹ s⁻¹] | νmax ([1]; 65° C.) | Km increase (times) relative to 60° C. ([1]; 65° C. and 70° C. vs 60° C.) [times] | kcat/Km ([1]; 70° C.) | νmax ([1]; 70° C.) | Km ([2]; other: 60° C.) [mM] | kcat/Km ([2]; other: 65° C.) [M⁻¹ s⁻¹]
1 | OC[C@H]1OC(O)[C@H](O)[C@@H](O)[C@H]1O (stereo partly drawn) [galactose] | 35 M⁻¹ s⁻¹ and 35 ± 0.67 M⁻¹ s⁻¹ | 2.5 U/mg and 2.5 ± 0.07 U/mg | 38.3 ± 0.5 | 6.5 U/mg and 6.5 ± 0.57 U/mg | 2.4 | 53.3 M⁻¹ s⁻¹ and 53.3 ± 0.67 M⁻¹ s⁻¹ | 9.1 U/mg and 9.1 ± 1.42 U/mg | – | –
2 | Geobacillus thermodenitrificans arabinose isomerase (mGTAI), recombinant, expressed in and purified from Corynebacterium glutamicum mGTAIC001 (Geobacillus … (protein) MMLSLRPYELWFVTGSQHLYGEEALKQVEEHSRTIVNELNRDSVFPFPLVFKPIVTTPEEIRNICLEANASEQCAGVVTWMHTFSPAKMWIGGLLELRKPLLHLHTQFNRDIPWDSIDMDFMNLNQSAHGDREYGFIGARMGVARKVVVGHWEDPEVRERLAKWMRTAVAFAESRHLKVARFGDNMREVAVTEGDKVGAQIQFGWSINGYGIGDLVQSIRDVSEQSVNELLDEYAELYDIVPAGRQDGPVRESIREQARIELGLKAFLQDGNFTAFTTTFEDLHGMKQLPGLAVQRLMAEGYGFGGEGDWKTAALVRLMKVMADGKGTSFMEDYTYHFEPGNEMILGAHMLEVCPTIAATRPRIEVHPLSIGGKEDPARLVFDGGEGAAVNASLIDLGHRFRLIVNEVDAVKPEYDMPKLPVARILWKPRPSLRDSAEAWILAGGAHHTSFSFAVTAEQLEDFAEMTGIECVVIKEHTSVSSFKNELRWNEVFWRGR | – | – | – | – | – | – | – | 67.0 ± 2.98 | 38.3
